Assay results: patent US4959356A, “Porphyrins for boron neutron capture therapy” (The United States of America as represented by the United …, priority 1989, dated 1990)
Like-named read-outs stand apart in the source and are kept apart here.

Columns and labels:
[1] = system: transplanted Harding-Passey melanomas; design: species or system BALB/c mice; conditions: mouse, in vivo
Procedure: The porphyrins of the present invention were tested for biodistribution and tumor uptake. BALB/c mice carrying transplanted Harding-[…] melanomas subcutaneously on the thigh or abdomen were given six intraperitoneal 0.5 mL injections over two days. The injection solutions contained 1 mg of compound/mL which is a total dose of 3 mg/mouse (approx. 150 μg porphyrin/g body weight or 32.2 μg B/g body weight). The compounds of formula II were completely water soluble and were allowed a 2 day clearance period post injection. The boron content was assayed by prompt gamma analysis using the gamma ray from the ^10 B(n,α)^7 Li reaction. Counts from the […] prompt-.tau.-ray are detected and analyzed using a narrow collimated thermal neutron beam from the Medical Research Reactor at Brookhaven National Laboratory. In this method the mice are dissected and whole organs or tissue samples (0.20-1.0 g) are measured for their boron content. […] Table 1 provides data for both the free base (compound of formula II wherein X is 2H) as well as the zinc chelate (compound of formula II wherein X is Zn), while Table 2 provides data for the free base. […] The long retention of porphyrins in tumor tissue can be exploited by waiting at least 4 days after it has cleared out of the blood before irradiation.

tumor cell = conditions: in vitro; cited from earlier work

| Substance | boron in the normal brain (in words) [1] | crossing of the blood-brain barrier [1] | retention of boron in tumor and clearance from blood (in words) [1] | tumor to blood ratio (comparison) [1] | uptake of boron into the tumor (in words) [1] | tumor to blood ratio ([1]; 2880 min) | tumor to blood ratio ([1]; 5760 min) | uptake in blood ([1]; ip, 48 h) | uptake in brain ([1]; ip, 48 h) | uptake in kidney ([1]; ip, 48 h) | uptake in liver ([1]; ip, 48 h) | uptake in lung ([1]; ip, 48 h) | uptake in muscle ([1]; ip, 48 h) | uptake in spleen ([1]; ip, 48 h) | uptake in tumor ([1]; ip, 48 h) | retention in tumor cell (tumor cell) |
| --- | --- | --- | --- | --- | --- | --- | --- | --- | --- | --- | --- | --- | --- | --- | --- | --- |
| dipotassium 2,4-bis-[2-(1,2-dicarbaundecaborate(-1))ethenyl]deuteroporphyrin IX [FREE BASE] | only a small amount of boron in the normal brain | does not cross the blood-brain barrier | retention of boron in the tumor with clearance from the blood over time | higher for the free base | substantial uptake of boron into the tumor | approximately 1:1 | approx. 5:1 | 15.3 ± 1.5 μgB/g TISSUE | 2.0 μgB/g TISSUE | 16.8 μgB/g TISSUE | 38.0 ± 11.9 μgB/g TISSUE | 20.8 μgB/g TISSUE | 3.9 μgB/g TISSUE | 8.5 μgB/g TISSUE | 18.7 ± 3.4 μgB/g TISSUE | – |
| Na2 B12 H11 SH [BSH] | – | – | – | – | – | – | – | – | – | – | – | – | – | – | – | does not stay in the tumor cell but is easily washed out |
